Source: ChEMBL document CHEMBL4834472 (J Med Chem, 2021)

What was measured:
[1] = target: CDK2/Cyclin A1 (Homo sapiens, UniProt P24941); assay type: protein-complex assay
Description: Inhibition of CDK2/Cyclin A1 (unknown origin) at 1 uM using histone H1 as substrate preincubated for 20 mins followed by 33P-ATP addition and measured after 2 hrs by filter binding method

[2] = target: Receptor-type tyrosine-protein kinase FLT3 (Homo sapiens, UniProt P36888, ITD)
[3] = system: K562; test: cells; details: Homo sapiens, K562, 72 h
Description: Antiproliferative activity against human K562 cells assessed as cell death measured after 72 hrs by resazurin dye based assay

[4] = system: MV4-11; test: cells; details: Homo sapiens, MV4-11, 72 h
Description: Antiproliferative activity against human MV4-11 cells assessed as cell death measured after 72 hrs by resazurin dye based assay

Sequence of Receptor-type tyrosine-protein kinase FLT3 (P36888 whole entry, looked up, change not shown): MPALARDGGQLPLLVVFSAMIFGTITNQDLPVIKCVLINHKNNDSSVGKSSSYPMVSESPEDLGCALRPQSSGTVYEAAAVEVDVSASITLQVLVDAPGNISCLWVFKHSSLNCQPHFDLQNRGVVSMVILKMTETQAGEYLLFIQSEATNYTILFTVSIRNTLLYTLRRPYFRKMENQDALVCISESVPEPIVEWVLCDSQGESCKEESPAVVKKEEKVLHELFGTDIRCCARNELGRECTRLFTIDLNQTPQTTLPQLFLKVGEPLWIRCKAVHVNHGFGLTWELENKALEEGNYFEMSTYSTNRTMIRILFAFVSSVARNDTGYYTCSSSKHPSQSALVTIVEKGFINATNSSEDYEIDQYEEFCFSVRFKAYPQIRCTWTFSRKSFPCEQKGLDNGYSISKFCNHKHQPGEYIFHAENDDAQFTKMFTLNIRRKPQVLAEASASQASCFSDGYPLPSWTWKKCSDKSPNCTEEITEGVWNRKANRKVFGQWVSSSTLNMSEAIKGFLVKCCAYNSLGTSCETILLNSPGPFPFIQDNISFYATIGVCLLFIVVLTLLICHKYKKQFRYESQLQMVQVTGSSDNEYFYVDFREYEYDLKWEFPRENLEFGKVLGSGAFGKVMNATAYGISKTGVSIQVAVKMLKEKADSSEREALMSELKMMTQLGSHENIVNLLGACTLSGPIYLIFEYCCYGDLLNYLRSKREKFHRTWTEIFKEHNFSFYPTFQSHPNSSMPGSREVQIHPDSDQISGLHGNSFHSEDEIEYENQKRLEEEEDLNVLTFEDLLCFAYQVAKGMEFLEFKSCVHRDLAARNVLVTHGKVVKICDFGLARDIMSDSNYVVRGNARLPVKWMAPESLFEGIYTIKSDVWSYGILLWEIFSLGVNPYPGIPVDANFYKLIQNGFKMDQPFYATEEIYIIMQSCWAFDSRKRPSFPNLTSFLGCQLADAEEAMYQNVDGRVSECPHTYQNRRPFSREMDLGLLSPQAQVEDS

Row | IC50 [1] | IC50 [2] | IC50 [3] | IC50 [4] | Structure (SMILES)
1 | > 20 µM | > 20 µM | > 100 µM | > 100 µM | N#Cc1n[nH]c2ccc3nc(-c4c[nH]nc4C(F)(F)F)c4c(c3c12)CCCC4
2 | 5.97 µM | 3.14 µM | 66.6 µM | 3.5 µM | NC1CCc2c(c(-c3c[nH]nc3C(F)(F)F)nc3ccc4[nH]ncc4c23)C1 (configuration not stated)
3 | 0.717 µM | 0.042 µM | 21.1 µM | 0.687 µM | Cc1n[nH]cc1-c1nc2ccc3[nH]nc(C)c3c2c2c1CCCC2
4 | 0.111 µM | 0.086 µM | 8.81 µM | 0.123 µM | N#CC1CCc2c(c(-c3c[nH]nc3C(F)(F)F)nc3c(F)cc4[nH]ncc4c23)C1 (configuration not stated)
5 | 1.26 µM | 0.408 µM | 87.8 µM | 0.4 µM | FC(F)(F)c1n[nH]cc1-c1nc2ccc3[nH]nnc3c2c2c1CCCC2
6 | 0.111 µM | 0.118 µM | 6.7 µM | 0.037 µM | CCOC(=O)C1CCc2c(c(-c3c[nH]nc3C(F)(F)F)nc3ccc4[nH]ncc4c23)C1 (configuration not stated)
7 | 0.556 µM | 0.549 µM | 10.4 µM | 0.5 µM | Cn1cc(-c2nc3ccc4[nH]ncc4c3c3c2CCCC3)c(C(F)(F)F)n1
8 | 0.107 µM | 0.194 µM | 8.73 µM | 0.514 µM | Cc1n[nH]c(C)c1-c1nc2ccc3[nH]ncc3c2c2c1CCCC2
9 | 0.325 µM | 0.003 µM | 28.9 µM | 0.544 µM | FC(F)(F)c1n[nH]cc1-c1nc2ccc3[nH]nc(Br)c3c2c2c1CCCC2
10 | 0.555 µM | 2.02 µM | 30.8 µM | 0.88 µM | Cc1noc(C)c1-c1nc2ccc3[nH]ncc3c2c2c1CCCC2
11 | 0.046 µM | 0.004 µM | 39.1 µM | 0.084 µM | CCc1c(C)c(-c2c[nH]nc2C(F)(F)F)nc2ccc3[nH]ncc3c12
12 | 0.823 µM | 2.99 µM | 76.8 µM | 3.62 µM | FC(F)(F)c1n[nH]cc1-c1cc(-c2ccncc2)c2c(ccc3[nH]ncc32)n1
13 | 5.74 µM | 1.25 µM | 20.3 µM | 2.39 µM | FC(F)(F)c1n[nH]cc1-c1nc2c(N3CCCCC3)cc3[nH]ncc3c2c2c1CCCC2
14 | 0.237 µM | 3.12 µM | 21.9 µM | 2.94 µM | Nc1ccc(-c2nc3ccc4[nH]ncc4c3c3c2CCCC3)cc1C(F)(F)F
15 | 0.04 µM | 0.017 µM | 8.6 µM | 0.024 µM | [O-][S+]1CCc2c(c(-c3c[nH]nc3C(F)(F)F)nc3ccc4[nH]ncc4c23)C1 (configuration not stated)
16 | 0.107 µM | 0.107 µM | 11.1 µM | 0.18 µM | FC(F)(F)c1n[nH]cc1-c1nc2c(C(F)(F)F)cc3[nH]ncc3c2c2c1CCCC2
17 | 0.231 µM | 0.799 µM | > 100 µM | 0.765 µM | O=S1(=O)CCc2c(c(-c3c[nH]nc3C(F)(F)F)nc3ccc4[nH]ncc4c23)C1
18 | 0.063 µM | 0.021 µM | 40.1 µM | 1.26 µM | FC(F)(F)c1n[nH]cc1-c1nc2ccc3[nH]nc(I)c3c2c2c1CCCC2
19 | 0.19 µM | 0.109 µM | 9.25 µM | 0.092 µM | FC(F)(F)c1n[nH]cc1-c1nc2ccc3[nH]ncc3c2c2c1COCC2
20 | 10 µM | 0.018 µM | 24.8 µM | 0.459 µM | CN1CCN(CC#Cc2n[nH]c3ccc4nc(-c5c[nH]nc5C(F)(F)F)c5c(c4c23)CCCC5)CC1
21 | 0.02 µM | 0.016 µM | 22.5 µM | 0.032 µM | OC1CCc2c(c(-c3c[nH]nc3C(F)(F)F)nc3ccc4[nH]ncc4c23)C1 (configuration not stated)
22 | 1.72 µM | 0.034 µM | > 100 µM | 2.01 µM | FC(F)(F)c1n[nH]cc1-c1nc2ccc3[nH]nc(Cl)c3c2c2c1CCCCC2
23 | 0.017 µM | 0.007 µM | 3.77 µM | 0.113 µM | Cc1n[nH]cc1-c1nc2c(F)cc3[nH]ncc3c2c2c1CCCC2
24 | 0.32 µM | 0.02 µM | > 100 µM | 0.92 µM | CC(=O)NC1CCc2c(c(-c3c[nH]nc3C(F)(F)F)nc3ccc4[nH]ncc4c23)C1 (configuration not stated)

Row | IC50 [1] | IC50 [2] | IC50 [3] | IC50 [4] | Structure (SMILES)
25 | 0.469 µM | > 20 µM | > 100 µM | 52.5 µM | Fc1cc(F)cc(-c2cc(-c3c[nH]nc3C(F)(F)F)nc3ccc4[nH]ncc4c23)c1
26 | 0.18 µM | 0.132 µM | 9.8 µM | 0.6 µM | c1[nH]nnc1-c1nc2ccc3[nH]ncc3c2c2c1CCCC2
27 | 0.139 µM | 0.126 µM | 8.1 µM | 0.014 µM | FC(F)(F)c1n[nH]cc1-c1nc2ccc3[nH]ncc3c2c2c1CC(C(F)(F)F)CC2 (configuration not stated)
28 | 0.087 µM | 0.368 µM | 78.9 µM | 0.98 µM | FC(F)(F)c1n[nH]cc1-c1cc(C2CC2)c2c(ccc3[nH]ncc32)n1
29 | 10.8 µM | > 20 µM | > 100 µM | 36.3 µM | FC(F)(F)c1n[nH]cc1-c1nc2c(Br)cc3[nH]ncc3c2c2c1CCCC2
30 | 3.26 µM | 1.69 µM | 44.6 µM | 2.42 µM | Cn1ncc2c3c4c(c(-c5c[nH]nc5C(F)(F)F)nc3ccc21)CCCC4
31 | 1.44 µM | 0.563 µM | > 100 µM | 20 µM | O=C(O)C1CCc2c(c(-c3c[nH]nc3C(F)(F)F)nc3ccc4[nH]ncc4c23)C1 (configuration not stated)
32 | 0.272 µM | 0.031 µM | 31.2 µM | 0.66 µM | Fc1n[nH]c2ccc3nc(-c4c[nH]nc4C(F)(F)F)c4c(c3c12)CCCC4
33 | 0.031 µM | 0.003 µM | 25.1 µM | 0.076 µM | FC(F)(F)c1n[nH]cc1-c1nc2ccc3[nH]ncc3c2c2c1CCCCC2
34 | 0.072 µM | 0.09 µM | 3.93 µM | 0.33 µM | c1n[nH]cc1-c1nc2ccc3[nH]ncc3c2c2c1CCCC2
35 | 5.16 µM | 8.49 µM | 56.8 µM | 7.35 µM | FC(F)(F)c1n[nH]cc1-c1nc2ccc3sncc3c2c2c1CCCC2
36 | 1.13 µM | 3.66 µM | 33.8 µM | 1.3 µM | Cn1cc(-c2nc3ccc4[nH]ncc4c3c3c2CCCC3)c(C2CC2)n1
37 | 8.24 µM | > 20 µM | > 100 µM | > 100 µM | FC(F)(F)c1ccc(-c2cc(-c3c[nH]nc3C(F)(F)F)nc3ccc4[nH]ncc4c23)cc1
38 | 0.333 µM | 0.015 µM | 9.94 µM | 0.012 µM | Cc1n[nH]c2ccc3nc(-c4c[nH]nc4C(F)(F)F)c4c(c3c12)CCC(C#N)C4 (configuration not stated)
39 | 0.058 µM | 0.019 µM | 16 µM | 0.74 µM | NCC1CCc2c(c(-c3c[nH]nc3C(F)(F)F)nc3c(F)cc4[nH]ncc4c23)C1 (configuration not stated)
40 | 0.64 µM | 0.211 µM | 53.8 µM | 0.319 µM | Cc1n[nH]c2ccc3nc(-c4c[nH]nc4C(F)(F)F)c4c(c3c12)CCC(N)C4 (configuration not stated)
41 | 0.088 µM | 0.212 µM | 11.1 µM | 0.61 µM | CC(C)c1n[nH]cc1-c1nc2ccc3[nH]ncc3c2c2c1CCCC2
42 | 0.901 µM | 0.016 µM | 33 µM | 0.55 µM | FC(F)(F)c1n[nH]cc1-c1nc2ccc3[nH]ncc3c2c2c1CC(N1CCOCC1)CC2 (configuration not stated)
43 | 0.266 µM | 0.141 µM | 19.1 µM | 0.44 µM | CN1CCN(C2CCc3c(c(-c4c[nH]nc4C(F)(F)F)nc4ccc5[nH]ncc5c34)C2)CC1 (configuration not stated)
44 | 2.32 µM | 0.041 µM | > 100 µM | 2.49 µM | FC(F)(F)c1n[nH]cc1-c1nc2ccc3[nH]nc(Cl)c3c2c2c1CCCC2
45 | 1.45 µM | 3.84 µM | 77.5 µM | 1.4 µM | CC(C)c1nn(C)cc1-c1nc2ccc3[nH]ncc3c2c2c1CCCC2
46 | 1.27 µM | > 20 µM | 65.9 µM | 25.7 µM | Fc1ccc(-c2cc(-c3c[nH]nc3C(F)(F)F)nc3ccc4[nH]ncc4c23)cc1Cl
47 | – | > 2 µM | 0.013 µM | 0.007 µM | CCc1cnn2c(NCc3ccc[n+]([O-])c3)cc(N3CCCC[C@H]3CCO)nc12 [DINACICLIB]
